Experimental data taken from patent US6855338B2, “Anti-tumor therapies comprising a combination of a cartilage extract and an anti-neoplastic agent providing high efficacy and low toxic side effects” (priority 1997, dated 2005).

Legend:
[1] = system: peripheral white blood cells; assay: Number of peripheral white blood cells in normal mice; type: in vivo; conditions: for Number of white blood cells: day 15
Description: Toxicity was evaluated in cancerous animals by the body weight decrease. We further characterized the nature of the protective effect provided by the cartilage extract by assessing an hematology parameter namely the number of peripheral white blood cells. Normal mice were injected (l.P.) with CDDP (3 and 4 mg/kg) on days 1, 4, 7, 10 and 13 of the experimental protocol. The cartilage extract was administered, orally, at doses of 75, 150 and 500 mg/kg/day. Animals were sacrificed on day 15 and blood samples were collected for cell count using an automated blood cell analyzer. Groups consisted of animals receiving CDDP alone, the cartilage extract alone, both in combination or saline as negative control. […] Values obtained from individual groups that have received cartilage extract were pooled to increase statistical power. Mean white blood cell counts were plotted according to treatment group regimen (FIG. 3). A linear trend indicated a clear monotonic trend (r^2=0.9126) for as decrease in cell counts according to treatment regimen stringency. This observation is in agreement with a protective effect of the cartilage extract relative to the peripheral white blood cell population reduced during CDDP administration.

LLC lung metastasis = assay: Lewis lung carcinoma model (LLC), number of lung metastases; type: in vivo, C57B1/6 mice; conditions: for Percent reduction from control (lung metastases): first experiment
Description: We have verified the anti-tumor efficacy and the protective effect of cartilage extract by testing a combination of diverse concentrations of cartilage liquid extract alone and in combination with cisplatin (CDDP), in the Lewis lung carcinoma model (LLC). LLC cells were resuspended in sterile PBS (10^6 cells/0.2 ml) and implanted in C57B1/6 mice. After a period of 11 days, primary tumors reached an average volume of 1.0 cm^3 and were surgically resected. After surgery, mice were randomized into groups of 15 animals and control article (saline) and cartilage extract were administered on a daily basis via oral gavage at the dose levels indicated for a period of 15 days. At day 16-post-surgery, animals were sacrificed, the lungs fixed in 10% […] and the number of lung metastases counted. Animals were always kept under controlled environment: temperature 22° C., humidity 40% to 50%, light/dark cycle: 12 hours. They were fed and given water ad libitum. In a first experiment, five injections of CDDP were given intraperitoneally every three days (1, 2 and 3 mg/Kg). Cartilage extract was given per as daily (31, 125 and 500 mg/Kg). Saline was given as a control. In a second independent experiment, CDDP was given at a dose of 4 mg/kg. Cartilage extract was given at doses 75, 150 and 500 mg/kg. Saline was given again as a control. Administration of CDDP alone reduced the number of metastases by about 71%.

[2] = Toxic side effects by body weights of LLC mice; type: in vivo, C57B1/6 mice; conditions: CDDP alone 4 mg/kg; after fifteen days from inoculation
Description: LLC cells were resuspended in sterile PBS (10^6 cells/0.2 ml) and implanted in C57B1/6 mice. After a period of 11 days, primary tumors reached an average volume of 1.0 cm^3 and were surgically resected. After surgery, mice were randomized into groups of 15 animals and control article (saline) and cartilage extract were administered on a daily basis via oral gavage at the dose levels indicated for a period of 15 days. At day 16-post-surgery, animals were sacrificed, the lungs fixed in 10% […] and the number of lung metastases counted. Animals were always kept under controlled environment: temperature 22° C., humidity 40% to 50%, light/dark cycle: 12 hours. They were fed and given water ad libitum. The toxic side effects were evaluated by measuring the body weights. The results are illustrated in FIG. 2. During the first week of treatment, the body weights increased in all groups. Treatment started on Day 12 of the protocol. The decrease in body weight observed between the second and the third time point of the graph results from the surgery (on day 11) necessary to remove the primary LLC tumor mass. After fifteen days from inoculation, it was observed that CDDP alone was very toxic since a decrease of about 16% of body weight occurred in comparison to the non-treated group.

Number of white blood cells ([1]; CDDP 3 mg/kg i.p. days 1, 4, 7, 10, 13): 3.4e+09 L⁻¹
Number of white blood cells ([1]; CDDP 4 mg/kg i.p. days 1, 4, 7, 10, 13): 3.3e+09 L⁻¹
SMILES: [NH2][Pt]([NH2])([Cl])[Cl] [CDDP, cisplatin]
effect on number of white blood cells ([1]; CDDP 3 and 4 mg/kg alone): significant decrease of the number of white blood cells
Percent reduction from control (lung metastases) (LLC lung metastasis; CDDP 1 mg/kg i.p., alone): 19%
Percent reduction from control (lung metastases) (LLC lung metastasis; CDDP 2 mg/kg i.p., alone): 35%
Percent reduction from control (lung metastases) (LLC lung metastasis; CDDP 3 mg/kg i.p. every three days x5, alone): 54%
reduction of the number of metastases (LLC lung metastasis; CDDP alone 4 mg/kg, second independent experiment): about 71%
decrease in metastases (LLC lung metastasis; CDDP alone at 5 mg/kg (data not shown), stated equivalent to the 500 mg/kg/day + 3 mg combination): ~85%
decrease of body weight in comparison to the non-treated group [2]: about 16%
